{"source": "patent EP4696689A1", "about": "“SALT FORM AND CRYSTAL FORM OF CHIRAL HETEROCYCLIC COMPOUND HAVING HEDGEHOG PATHWAY ANTAGONIST ACTIVITY” (Suzhou Kintor Pharmaceuticals, Inc., priority 2023, dated 2024)", "system": "primary extracted medulloblastoma cells", "assay": "antitumor efficacy against medulloblastoma, subcutaneous xenograft model;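 as to all read-outs here: male CB-17/SCID mice bearing subcutaneous tumors, randomized at 150-300 mm^3, tumor volume from caliper diameters as 0.5 × longest × shortest squared, measured twice weekly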", "assay_type": "in vivo, CB-17/SCID mice", "conditions": "for Tumor Volume at Day 0 (mm^3): before treatment; for T/C (%) / Tumor Volume at Dosing Endpoint (mm^3) / TGI (%): 17 days; for Tumor Volume at Dosing Endpoint (mm^3): volume on Day 18; for Fold Change in Tumor Volume: Day 18 compared to Day 0; for anti-tumor efficacy compared to the high-dose GDC-0449 (10 mg/kg) group: after 17 days of treatment", "procedure": "60 male CB-17/SCID mice (aged 6-8 weeks) were purchased from Shanghai SLAC Laboratory Animal Co., Ltd. Animals were housed in individually ventilated cages (IVCs), with five mice per cage. Housing conditions were as follows: temperature was maintained at 20-26°C; humidity was 30-70%; 12 hours of light and 12 hours of darkness.\nCB-17/SCID mice were subcutaneously injected with primary extracted medulloblastoma cells. After 3-4 weeks, a subset of mice developed tumors with volumes ranging from 150 to 300 mm^3.\n30 mice with uniform tumor sizes (Coefficient of Variation, CV < 30%, CV = Standard Deviation / Mean) were selected from this group. These mice were selected and randomly divided into five experimental groups according to Table 6-2, with six mice in each group and one group per cage. Drug administration began the day after grouping and lasted for 17 days with a frequency of twice daily (BID). The drug was discontinued after 17 days to observe tumor changes.\nDuring routine examinations, animals were monitored for tumor growth, activity level, food intake, water consumption, weight gain or loss, eye, fur, and any other abnormal behaviors. Animal deaths and clinical abnormalities were recorded. Tumor volume (TV) was measured twice weekly using calipers and calculated using the formula: TV = 0.5a × b^2, wherein a is the longest diameter of the tumor and b is the shortest diameter. Body weight was recorded twice weekly, concurrently with tumor volume measurements.\nIf the animals' weight subsequently recovered to within a 10% loss compared to baseline, whether to continue the administration was based on the animals' condition. The in vivo experimental for an individual animal or the entire group would be terminated under the following conditions. The animals will be euthanized before death or coma. • ➢ If the animals' health condition deteriorated continuously, causing persistent suffering and is unable to eat or drink. • ➢ If the animal became emaciated, with a body weight loss exceeding 20% compared to the initial administration. • ➢ If the tumor volume of an individual mouse exceeded 3000 mm^3 or the mean tumor volume of the entire group exceeded 2000 mm^3.\nAll data were analyzed using GraphPad Prism 5.0. P value < 0.05 was considered statistically significant.\nPrimary tumor cells were extracted from Math1-Cre/Ptch1 ^C/C mice with spontaneous medulloblastoma and subcutaneously inoculated into CB-17/SCID mice to establish a xenograft model of medulloblastoma."}
{"smiles": "Cc1cnc(-c2cc(N3CCc4nc(N5CCC(O)CC5)ncc4[C@H]3C)ncc2Cl)c(C)c1", "note": "[Fumarate crystal form F]", "values": [{"measurement": "Tumor Volume at Day 0 (mm^3)", "setting": "1 mg/kg group", "value": "220.5 ± 43.7", "unit": "mm^3"}, {"measurement": "Tumor Volume", "setting": "1 mg/kg i.g. BID × 17 days, day 0 after grouping", "value": "220.5 ± 43.7", "unit": "mm3"}, {"measurement": "Tumor Volume", "setting": "1 mg/kg i.g. BID × 17 days, day 3", "value": "244.9 ± 82.4", "unit": "mm3"}, {"measurement": "Tumor Volume", "setting": "1 mg/kg i.g. BID × 17 days, day 6", "value": "483.8 ± 252.8", "unit": "mm3"}, {"measurement": "Tumor Volume", "setting": "1 mg/kg i.g. BID × 17 days, day 9", "value": "759.7 ± 401.1", "unit": "mm3"}, {"measurement": "Tumor Volume", "setting": "1 mg/kg i.g. BID × 17 days, day 12", "value": "1234.4 ± 582.9", "unit": "mm3"}, {"measurement": "Tumor Volume", "setting": "1 mg/kg i.g. BID × 17 days, day 15", "value": "2056.6 ± 1094.9", "unit": "mm3"}, {"measurement": "Tumor Volume", "setting": "1 mg/kg i.g. BID × 17 days, day 18", "value": "2868.8 ± 1372.9", "unit": "mm3"}, {"measurement": "Tumor Volume", "setting": "1 mg/kg i.g. BID × 17 days, day 21, drug withdrawal observation", "value": "4176.0 ± 1871.1", "unit": "mm3"}, {"measurement": "T/C (%)", "setting": "1 mg/kg i.g. BID", "value": 124.5, "unit": "%"}, {"measurement": "Tumor Volume at Dosing Endpoint (mm^3)", "setting": "1 mg/kg i.g. BID", "value": "2868.8 ± 1372.9", "unit": "mm^3"}, {"measurement": "Fold Change in Tumor Volume", "setting": "1 mg/kg i.g. BID", "value": "12.80 ± 4.95"}, {"measurement": "Tumor Volume at Day 0 (mm^3)", "setting": "3 mg/kg group", "value": "244.1 ± 17.1", "unit": "mm^3"}, {"measurement": "Tumor Volume", "setting": "3 mg/kg i.g. BID × 17 days, day 0 after grouping", "value": "244.1 ± 17.1", "unit": "mm3"}, {"measurement": "Tumor Volume", "setting": "3 mg/kg i.g. BID × 17 days, day 3", "value": "205.3 ± 26.0", "unit": "mm3"}, {"measurement": "Tumor Volume", "setting": "3 mg/kg i.g. BID × 17 days, day 6", "value": "147.7 ± 56.5", "unit": "mm3"}, {"measurement": "Tumor Volume", "setting": "3 mg/kg i.g. BID × 17 days, day 9", "value": "140.1 ± 62.3", "unit": "mm3"}, {"measurement": "Tumor Volume", "setting": "3 mg/kg i.g. BID × 17 days, day 12", "value": "112.7 ± 46.9", "unit": "mm3"}, {"measurement": "Tumor Volume", "setting": "3 mg/kg i.g. BID × 17 days, day 15", "value": "125.4 ± 58.9", "unit": "mm3"}, {"measurement": "Tumor Volume", "setting": "3 mg/kg i.g. BID × 17 days, day 18", "value": "150.4 ± 77.2", "unit": "mm3"}, {"measurement": "Tumor Volume", "setting": "3 mg/kg i.g. BID × 17 days, day 21, drug withdrawal observation", "value": "199.3 ± 93.7", "unit": "mm3"}, {"measurement": "Tumor Volume", "setting": "3 mg/kg i.g. BID × 17 days, day 23, drug withdrawal observation", "value": "271.2 ± 131.7", "unit": "mm3"}, {"measurement": "Tumor Volume", "setting": "3 mg/kg i.g. BID × 17 days, day 26, drug withdrawal observation", "value": "604.1 ± 328.5", "unit": "mm3"}, {"measurement": "Tumor Volume", "setting": "3 mg/kg i.g. BID × 17 days, day 29, drug withdrawal observation", "value": "887.6 ± 407.9", "unit": "mm3"}, {"measurement": "Tumor Volume", "setting": "3 mg/kg i.g. BID × 17 days, day 32, drug withdrawal observation", "value": "1209.2 ± 513.6", "unit": "mm3"}, {"measurement": "Tumor Volume", "setting": "3 mg/kg i.g. BID × 17 days, day 35, drug withdrawal observation", "value": "1645.0 ±560.6", "unit": "mm3"}, {"measurement": "Tumor Volume", "setting": "3 mg/kg i.g. BID × 17 days, day 38, drug withdrawal observation", "value": "2352.0 ± 963.1", "unit": "mm3"}, {"measurement": "T/C (%)", "setting": "3 mg/kg i.g. BID", "value": 6.03, "unit": "%"}, {"measurement": "TGI (%)", "setting": "3 mg/kg i.g. BID", "value": 93.97, "unit": "%"}, {"measurement": "Tumor Volume at Dosing Endpoint (mm^3)", "setting": "3 mg/kg i.g. BID", "value": "150.4 ± 77.2", "unit": "mm^3"}, {"measurement": "Fold Change in Tumor Volume", "setting": "3 mg/kg i.g. BID", "value": "0.62 ± 0.33"}, {"measurement": "Tumor Volume at Day 0 (mm^3)", "setting": "10 mg/kg group", "value": "234.5 ± 33.6", "unit": "mm^3"}, {"measurement": "Tumor Volume", "setting": "10 mg/kg i.g. BID × 17 days, day 0 after grouping", "value": "234.5 ± 33.6", "unit": "mm3"}, {"measurement": "Tumor Volume", "setting": "10 mg/kg i.g. BID × 17 days, day 3", "value": "187.9 ± 44.7", "unit": "mm3"}, {"measurement": "Tumor Volume", "setting": "10 mg/kg i.g. BID × 17 days, day 6", "value": "98.7 ± 28.9", "unit": "mm3"}, {"measurement": "Tumor Volume", "setting": "10 mg/kg i.g. BID × 17 days, day 9", "value": "47.9 ± 29.8", "unit": "mm3"}, {"measurement": "Tumor Volume", "setting": "10 mg/kg i.g. BID × 17 days, day 12", "value": "24.5 ± 14.9", "unit": "mm3"}, {"measurement": "Tumor Volume", "setting": "10 mg/kg i.g. BID × 17 days, day 15", "value": "10.9 ± 5.1", "unit": "mm3"}, {"measurement": "Tumor Volume", "setting": "10 mg/kg i.g. BID × 17 days, day 18", "value": "8.8 ± 6.1", "unit": "mm3"}, {"measurement": "Tumor Volume", "setting": "10 mg/kg i.g. BID × 17 days, day 21, drug withdrawal observation", "value": "14.7 ± 10.1", "unit": "mm3"}, {"measurement": "Tumor Volume", "setting": "10 mg/kg i.g. BID × 17 days, day 23, drug withdrawal observation", "value": "16.6 ± 9.7", "unit": "mm3"}, {"measurement": "Tumor Volume", "setting": "10 mg/kg i.g. BID × 17 days, day 26, drug withdrawal observation", "value": "18.1 ± 11.5", "unit": "mm3"}, {"measurement": "Tumor Volume", "setting": "10 mg/kg i.g. BID × 17 days, day 29, drug withdrawal observation", "value": "43.9 ± 37.3", "unit": "mm3"}, {"measurement": "Tumor Volume", "setting": "10 mg/kg i.g. BID × 17 days, day 32, drug withdrawal observation", "value": "92.2 + 101.2 mm3"}, {"measurement": "Tumor Volume", "setting": "10 mg/kg i.g. BID × 17 days, day 35, drug withdrawal observation", "value": "214.8 + 254.9 mm3"}, {"measurement": "Tumor Volume", "setting": "10 mg/kg i.g. BID × 17 days, day 38, drug withdrawal observation", "value": "347.4 + 445.9 mm3"}, {"measurement": "T/C (%)", "setting": "10 mg/kg i.g. BID", "value": 0.39, "unit": "%"}, {"measurement": "TGI (%)", "setting": "10 mg/kg i.g. BID, TGI = [1 - RTV(treatment group) / RTV(control group)] × 100%", "value": 99.61, "unit": "%"}, {"measurement": "Tumor Volume at Dosing Endpoint (mm^3)", "setting": "10 mg/kg i.g. BID", "value": "8.8 ± 6.1", "unit": "mm^3"}, {"measurement": "Fold Change in Tumor Volume", "setting": "10 mg/kg i.g. BID", "value": "0.04 ± 0.03"}, {"measurement": "anti-tumor efficacy compared to the high-dose GDC-0449 (10 mg/kg) group", "setting": "high-dose (10 mg/kg)", "value": "significantly superior"}, {"measurement": "inhibitory effect on tumor growth versus vehicle control group", "setting": "low dose (1 mg/kg)", "value": "did not show a significant inhibitory effect"}, {"measurement": "recurrent tumor volume compared with the GDC-0449 group at the same time", "setting": "medium and high-dose group, post-treatment observation period", "value": "significantly lower"}, {"measurement": "anti-tumor efficacy compared to the high-dose GDC-0449 (10 mg/kg) group", "setting": "medium-dose (3 mg/kg)", "value": "significantly superior"}]}
